Experiments:
[1] = target: T1, neutral endopeptidase (NEP, EC 3.4.24.11) (Rattus norvegicus, UniProt P07861); experiment: GAAP in vitro assay of neutral endopeptidase (rat kidney cortex membranes); format: biochemical; conditions: substrate glutaryl-Ala-Ala-Phe-2-naphthylamide 500 μM, pH 7.4 at 25° C.
T1 construct: 4.2 μg of protein (rat kidney cortex membranes prepared by method of Maeda et at, 1983); from tissue; host or cells: rat kidney cortex membranes
T1 sequence (P07861 1-750): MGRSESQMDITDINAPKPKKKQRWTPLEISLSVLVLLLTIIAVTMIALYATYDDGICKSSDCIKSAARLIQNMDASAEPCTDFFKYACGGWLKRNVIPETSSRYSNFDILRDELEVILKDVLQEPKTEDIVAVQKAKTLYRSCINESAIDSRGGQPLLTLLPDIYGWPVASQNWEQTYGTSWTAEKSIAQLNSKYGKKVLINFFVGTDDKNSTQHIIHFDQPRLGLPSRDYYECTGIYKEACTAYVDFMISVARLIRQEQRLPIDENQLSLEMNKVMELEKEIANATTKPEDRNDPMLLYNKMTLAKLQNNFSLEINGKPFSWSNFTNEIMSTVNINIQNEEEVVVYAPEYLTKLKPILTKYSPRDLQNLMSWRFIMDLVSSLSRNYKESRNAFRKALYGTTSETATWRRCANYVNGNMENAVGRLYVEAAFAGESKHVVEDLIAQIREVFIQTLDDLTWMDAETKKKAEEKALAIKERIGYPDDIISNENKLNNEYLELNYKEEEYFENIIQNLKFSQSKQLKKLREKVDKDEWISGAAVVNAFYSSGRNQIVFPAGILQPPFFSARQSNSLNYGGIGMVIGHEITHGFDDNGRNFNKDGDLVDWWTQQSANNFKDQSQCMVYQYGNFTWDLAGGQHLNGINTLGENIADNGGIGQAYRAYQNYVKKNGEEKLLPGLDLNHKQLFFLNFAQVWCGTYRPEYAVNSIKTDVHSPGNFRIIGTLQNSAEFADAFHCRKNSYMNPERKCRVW
Protocol: In vitro testing is most appropriate for the free carboxylic acids of the invention. The test compound is dissolved in dimethyl sulfoxide, ethanol, or 0.25M sodium bicarbonate solution, and the solution is diluted with buffer to the desired concentration.
The in vitro inhibition of neutral endopeptidase (NEP, EC 3.4.24.11) can be determined as follows:
Neutral endopeptidase 3.4.24.11 activity is determined by the hydrolysis of the substrate glutaryl-Ala-Ala-Phe-2-naphthylamide (GAAP) using a modified procedure of Orlowski and Wilk (1981). The incubation mixture (total volume 125 μl) contains 4.2 μg of protein (rat kidney cortex membranes prepared by method of Maeda et at, 1983), 50 mM tris buffer, pH 7.4 at 25° C., 500 μM substrate (final concentration), and leucine aminopeptidase M (2.5 μg). The mixture is incubated for 10 minutes at 25° C. and 100 μl of fast garnet (250 μg fast garnet/ml of 10% Tween 20 in 1M sodium acetate, pH 4.2) is added. Enzyme activity is measured spectrophotometrically at 540 nm. One unit of NEP 24.11 activity is defined as 1 nmol of 2-naphthylamine released per minute at 25° C. at pH 7.4. IC50 values are determined, i.e. the concentration of test compound required for 50% inhibition of the release of 2-naphthylamine.

[2] = target: T2, angiotensin converting enzyme (Rattus norvegicus, UniProt P47820); experiment: Inhibition of angiotensin I induced pressor response in normotensive rats; format: in vivo; conditions: 10 mg/Kg i.v., male normotensive anesthetized rats, 300 ng/kg angiotensin I i.v. challenge
T2 construct: from tissue; host or cells: whole animal: male, normotensive rats
T2 sequence (P47820 36-1313): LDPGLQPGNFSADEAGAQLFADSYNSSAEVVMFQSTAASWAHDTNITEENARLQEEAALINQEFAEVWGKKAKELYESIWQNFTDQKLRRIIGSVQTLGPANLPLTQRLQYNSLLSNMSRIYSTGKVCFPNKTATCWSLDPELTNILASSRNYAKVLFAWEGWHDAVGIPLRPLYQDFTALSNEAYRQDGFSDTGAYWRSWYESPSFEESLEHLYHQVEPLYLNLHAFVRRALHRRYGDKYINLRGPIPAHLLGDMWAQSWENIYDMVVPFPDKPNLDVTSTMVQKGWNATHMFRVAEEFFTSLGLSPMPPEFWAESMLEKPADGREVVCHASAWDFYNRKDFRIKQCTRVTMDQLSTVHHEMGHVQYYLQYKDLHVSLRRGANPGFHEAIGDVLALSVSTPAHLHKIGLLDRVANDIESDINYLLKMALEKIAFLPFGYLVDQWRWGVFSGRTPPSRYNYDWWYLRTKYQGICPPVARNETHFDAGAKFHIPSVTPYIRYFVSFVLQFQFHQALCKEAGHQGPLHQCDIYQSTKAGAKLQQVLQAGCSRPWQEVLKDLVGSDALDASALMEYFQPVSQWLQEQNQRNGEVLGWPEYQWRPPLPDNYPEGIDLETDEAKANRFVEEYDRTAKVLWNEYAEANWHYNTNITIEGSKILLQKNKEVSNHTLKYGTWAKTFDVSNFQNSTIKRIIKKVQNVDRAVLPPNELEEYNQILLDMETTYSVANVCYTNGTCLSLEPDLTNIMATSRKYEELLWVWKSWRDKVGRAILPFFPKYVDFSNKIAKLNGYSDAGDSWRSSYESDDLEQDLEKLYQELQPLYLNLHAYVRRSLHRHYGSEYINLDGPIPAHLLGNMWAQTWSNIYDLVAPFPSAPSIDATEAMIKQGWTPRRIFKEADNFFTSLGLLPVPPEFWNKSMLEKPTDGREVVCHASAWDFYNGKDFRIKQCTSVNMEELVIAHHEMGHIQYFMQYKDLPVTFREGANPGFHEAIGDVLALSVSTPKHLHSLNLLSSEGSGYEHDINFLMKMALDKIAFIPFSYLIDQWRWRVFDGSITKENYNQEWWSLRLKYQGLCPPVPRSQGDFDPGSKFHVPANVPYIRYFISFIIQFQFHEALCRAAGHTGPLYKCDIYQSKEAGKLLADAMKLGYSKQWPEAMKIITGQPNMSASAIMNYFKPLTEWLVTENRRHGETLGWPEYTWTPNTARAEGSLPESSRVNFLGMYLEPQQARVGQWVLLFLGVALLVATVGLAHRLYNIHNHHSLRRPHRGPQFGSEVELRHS
Protocol: The in vivo test for intravenously administered compounds is performed with male, normotensive rats, which are anesthetized with sodium metofan. A femoral artery and femoral vein are cannulated respectively for direct blood pressure measurement on i.v. administration of angiotensin I and i.v. or p.o. administration of a compound of this invention. After the basal blood pressure is stabilized, pressor responses to 3 challenges of 300 ng/kg angiotensin I i.v., at 15 minute intervals, are obtained. Such pressure responses are usually again obtained at 15, 30, 60 and 90 minutes, and then every hour up to 6 hours after i.v. or p.o. administration of the compound to be tested, and compared with the initial responses. Any observed decrease of said pressor response is an indication of Angiotensin I converting enzyme inhibition.

IC50 [1]: ~9.2 nM
duration of inhibition of the Angiotensin I induced pressor response [2]: 6 h
SMILES: CC(C)[C@H](S)C(=O)NC(C)(C)C(=O)N[C@@H](Cc1ccc(O)cc1)C(=O)O [Example 2, N-[2-(2(S)-mercapto-3-methyl-1-oxobutylamino)-2-methyl-1-oxopropyl]-L-tyrosine]

Reference: patent publication US5508266A, “Gem-disubstituted amino acid derivatives” (Ciba-Geigy Corporation, priority 1994, dated 1996)
